Reference: patent US11807693B2 (priority 2014, dated 2023)
Where two headings read alike, the source gives them in different places. Starred links: 1 amine or outer side, 2 acyl side, 3 side chain; linkers in the order of their positions; H or OH if unused. Non-standard residues stand in square brackets, D forms with d. Residues, ends and D or L forms follow the SMILES beside them. ξ: configuration not given here. *: point of attachment. dBip = N[C@H](Cc1ccc(-c2ccccc2)cc1)C(=O)O; Oic = O=C(O)[C@@H]1C[C@@H]2CCCC[C@@H]2N1; Phe(4-Cl) = N[C@@H](Cc1ccc(Cl)cc1)C(=O)O; Phe(4-I) = N[C@@H](Cc1ccc(I)cc1)C(=O)O; γGlu = O=C(O)[C@H](CCC(=O)[*:2])N[*:1]; d(β3hF) = N[C@@H](CC(=O)O)Cc1ccccc1; NMeR = CN[C@@H](CCCNC(=N)N)C(=O)O; Palmitoyl = CCCCCCCCCCCCCCCC(=O)*; Tridecanoyl = CCCCCCCCCCCCC(=O)*; hArg = N=C(N)NCCCC[C@H](N)C(=O)O; Cha = N[C@@H](CC1CCCCC1)C(=O)O; NMeL = CN[C@@H](CC(C)C)C(=O)O; αMeL = CC(C)C[C@](C)(N)C(=O)O; αMeP = C[C@@]1(C(=O)O)CCCN1; ξαMeL = CC(C)CC(C)(N)C(=O)O; Nle = CCCC[C@H](N)C(=O)O; ξβ3hV = CC(C)C(N)CC(=O)O; AEEA = NCCOCCOCC(=O)O

Key:
rat plasma = conditions: 37° C., up to 4 hr
[1] = In vitro stability in rat liver homogenate; type: in vitro ADME; conditions: tissue homogenate
Procedure, shortened: (§1)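 Peptide remaining was followed by high-resolution LC-MS of methanol-quenched, centrifuged samples with internal standard. Incubations were at 37° C. over 4 hr, peptides at 5 μM final in rat plasma or in rat liver or kidney homogenate.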

human APJ receptor = target: T1, human APJ receptor (Homo sapiens, UniProt P35414); assay: [35S] GTPγS assay, human APJ receptor; type: biochemical
T1 construct: expressed in transfected cells
T1 sequence (P35414 1-380): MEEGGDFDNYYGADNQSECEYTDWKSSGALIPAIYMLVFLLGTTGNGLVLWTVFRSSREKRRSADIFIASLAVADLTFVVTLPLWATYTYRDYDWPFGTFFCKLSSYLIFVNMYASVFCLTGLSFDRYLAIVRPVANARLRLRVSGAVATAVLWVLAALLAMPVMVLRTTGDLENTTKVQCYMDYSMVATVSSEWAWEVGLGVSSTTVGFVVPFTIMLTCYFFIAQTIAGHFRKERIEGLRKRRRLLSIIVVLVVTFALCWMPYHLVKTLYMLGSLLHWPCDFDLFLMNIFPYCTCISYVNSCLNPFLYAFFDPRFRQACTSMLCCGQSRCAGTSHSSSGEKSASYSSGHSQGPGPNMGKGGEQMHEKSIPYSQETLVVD

[2] = In vitro stability in rat kidney homogenate; type: in vitro ADME; conditions: rat, tissue homogenate
Procedure, shortened: as §1

[3] = In vitro stability in rat plasma; type: in vitro ADME
Procedure, shortened: as §1

rat APJ receptor = target: T2, rat APJ receptor (Rattus norvegicus, UniProt Q9JHG3); assay: [35S] GTPγS assay, rat APJ receptor; type: biochemical
T2 construct: expressed in transfected cells
T2 sequence (Q9JHG3 1-377): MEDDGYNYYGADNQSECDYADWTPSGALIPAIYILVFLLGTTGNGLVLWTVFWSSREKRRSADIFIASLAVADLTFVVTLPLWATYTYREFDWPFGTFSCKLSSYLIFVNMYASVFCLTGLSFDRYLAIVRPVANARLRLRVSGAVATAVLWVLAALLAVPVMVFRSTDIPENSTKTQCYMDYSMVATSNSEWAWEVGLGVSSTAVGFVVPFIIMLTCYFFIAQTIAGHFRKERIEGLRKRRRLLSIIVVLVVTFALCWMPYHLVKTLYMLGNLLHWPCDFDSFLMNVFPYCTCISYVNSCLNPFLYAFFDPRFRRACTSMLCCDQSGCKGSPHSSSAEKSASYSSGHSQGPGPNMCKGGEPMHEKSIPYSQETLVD
Description: The membranes were incubated with modified peptides in the assay buffer. […] Bound [^35S] GTPγS was separated from free radiolabel by filtration. The filter bound radioactivity was determined by liquid scintillation counting.

[4] = rat APJ receptor, read-out: EC50 Rat APJ Receptor

Molecule | not cleaved (rat plasma) | remaining at 4 h, 5 μM [1] | EC50 (human APJ receptor; human APJ receptor) | remaining at 4 h, 5 μM [2] | remaining at 4 h, 5 μM [3] | EC50 (rat APJ receptor; [4]) | EC50 (human APJ receptor; Table 16) | EC50 (rat APJ receptor; Table 16, read-out: EC50 Rat APJ Receptor)
{Palm} [AC4Abu] [Aeea] [Aeea] q R P [NMeArg] [Cha] S H K G [Pip] [Nle] [Nip] [4-Cl-F] {COOH} | >90.0 % remaining at 4 hours | – | – | – | – | – | – | –
{Palm} [AC4Abu] [Aeea] [Aeea] q R P [NMeArg] [Cha] S H K G [Oic] [Nle] [BhPro] [D-BhPhe] {COOH} | >90.0 % remaining at 4 hours | – | – | – | – | – | – | –
CCCCCCCCCCCCCCCC(=O)N[C@@H](CCC(=O)NCCOCCOCC(=O)NCCOCCOCC(=O)N[C@H](CCC(N)=O)C(=O)N[C@@H](CCCCNC(=N)N)C(=O)N1CCC[C@H]1C(=O)N[C@H](CCCNC(=N)N)C(=O)N[C@@H](CC1CCCCC1)C(=O)N[C@@H](CO)C(=O)N[C@@H](Cc1c[nH]cn1)C(=O)N[C@@H](CCCCN)C(=O)NCC(=O)N1[C@H](C(=O)N[C@@H](CCCC)C(=O)N2CCC[C@H]2C(=O)N[C@@H](CC(=O)O)Cc2ccccc2)C[C@@H]2CCCC[C@@H]21)C(=O)O [compound 614] ({Palmitoyl-γGlu-AEEA-AEEA}-[dQ][hArg]P[dR][Cha]SHKG[Oic][Nle]P[d(β3hF)]-OH) | – | 11% | 1.25 nM | 9% | 90% | 10.3 nM | – | –
{Palm} [AC4Abu] [Aeea] [Aeea] q [hArg] P r [Cha] S H K G [Oic] [Nle] P [D-BhPhe] {COOH} | 90 % remaining at 4 hours | – | – | – | – | – | – | –
{Acetyl-NH} E r Q [hArg] P r [NMeLeu] S H K G [Oic] [pI-Phe] P [D-Bip] {COOH} | >90.0 % remaining at 4 hours | – | – | – | – | – | – | –
{Palm} [AC4Abu] [Aeea] [Aeea] q R P [NMeArg] [Cha] S H K G [Oic] [Nle] [Inp] [4-Cl-F] {COOH} | >90.0 % remaining at 4 hours | – | – | – | – | – | – | –
CCCC[C@H](NC(=O)[C@@H]1C[C@@H]2CCCC[C@@H]2N1C(=O)CNC(=O)[C@H](CCCCN)NC(=O)[C@H](Cc1c[nH]cn1)NC(=O)[C@H](CO)NC(=O)[C@H](CC1CCCCC1)NC(=O)[C@H](CCCNC(=N)N)N(C)C(=O)[C@@H]1CCCN1C(=O)[C@H](CCCCNC(=N)N)NC(=O)[C@H](CCC(N)=O)NC(C)=O)C(=O)N1CCC[C@H]1C(=O)N[C@@H](Cc1ccc(Cl)cc1)C(=O)O [compound 61] (Ac-Q[hArg]P[NMeR][Cha]SHKG[Oic][Nle]P[Phe(4-Cl)]-OH) | – | < 1% | 0.159 nM | 7.58% | 27.9% | 0.189 nM | – | –
CCCCCCCCCCCCC(=O)N[C@@H](CCC(=O)NCCOCCOCC(=O)NCCOCCOCC(=O)N[C@@H](CCC(N)=O)C(=O)N[C@@H](CCCNC(=N)N)C(=O)N1CCC[C@H]1C(=O)N(C)[C@@H](CCCNC(=N)N)C(=O)N[C@@](C)(CC(C)C)C(=O)N[C@@H](CO)C(=O)N[C@@H](Cc1c[nH]cn1)C(=O)N[C@@H](CCCCN)C(=O)NCC(=O)N1[C@H](C(=O)N[C@@H](CCCC)C(=O)N[C@@H](Cc2ccc(Cl)cc2)C(=O)O)C[C@@H]2CCCC[C@@H]21)C(=O)O [compound 389] ({Tridecanoyl-γGlu-AEEA-AEEA}-QRP[NMeR][αMeL]SHKG[Oic][Nle][Phe(4-Cl)]-OH) | – | < 1% | – | 4% | < 1% | – | 0.196 nM | –
CCCCCCCCCCCCC(=O)N[C@@H](CCC(=O)NCCOCCOCC(=O)NCCOCCOCC(=O)N[C@@H](CCC(N)=O)C(=O)N[C@@H](CCCNC(=N)N)C(=O)N1CCC[C@H]1C(=O)N[C@@H](CCCCNC(=N)N)C(=O)N[C@@](C)(CC(C)C)C(=O)N[C@@H](CO)C(=O)N[C@@H](Cc1c[nH]cn1)C(=O)N[C@@H](CCCCN)C(=O)NCC(=O)N1[C@H](C(=O)N[C@@H](CCCC)C(=O)N2CCC[C@H]2C(=O)N[C@@H](Cc2ccc(Cl)cc2)C(=O)O)C[C@@H]2CCCC[C@@H]21)C(=O)O [compound 360] ({Tridecanoyl-γGlu-AEEA-AEEA}-QRP[hArg][αMeL]SHKG[Oic][Nle]P[Phe(4-Cl)]-OH) | – | 2.5% | – | 2% | 81.5% | – | 0.0519 nM | –
CCCCCCCCCCCCC(=O)N[C@@H](CCC(=O)NCCOCCOCC(=O)NCCOCCOCC(=O)N[C@H](CCC(N)=O)C(=O)N[C@@H](CCCNC(=N)N)C(=O)N1CCC[C@H]1C(=O)N(C)[C@@H](CCCNC(=N)N)C(=O)N[C@@](C)(CC(C)C)C(=O)N[C@@H](CO)C(=O)N[C@@H](Cc1c[nH]cn1)C(=O)N[C@@H](CCCCN)C(=O)NCC(=O)N1[C@H](C(=O)N[C@@H](CCCC)C(=O)N2CCC[C@H]2C(=O)N[C@@H](Cc2ccc(Cl)cc2)C(=O)O)C[C@@H]2CCCC[C@@H]21)C(=O)O [compound 386] ({Tridecanoyl-γGlu-AEEA-AEEA}-[dQ]RP[NMeR][αMeL]SHKG[Oic][Nle]P[Phe(4-Cl)]-OH) | – | 6% | – | 4% | 58% | – | 0.0934 nM | –
CCCCCCCCCCCCC(=O)N[C@@H](CCC(=O)NCCOCCOCC(=O)NCCOCCOCC(=O)N[C@@H](CCCC)C(=O)N[C@H](CCCNC(=N)N)C(=O)N[C@@H](CCC(N)=O)C(=O)N[C@@H](CCCCNC(=N)N)C(=O)N1CCC[C@H]1C(=O)N[C@H](CCCNC(=N)N)C(=O)N(C)[C@@H](CC(C)C)C(=O)N[C@@H](CO)C(=O)N[C@@H](Cc1c[nH]cn1)C(=O)N[C@@H](CCCCN)C(=O)NCC(=O)N1[C@H](C(=O)N[C@@H](Cc2ccc(I)cc2)C(=O)N2CCC[C@H]2C(=O)N[C@H](Cc2ccc(-c3ccccc3)cc2)C(=O)O)C[C@@H]2CCCC[C@@H]21)C(=O)O [compound 314] ({Tridecanoyl-γGlu-AEEA-AEEA}-[Nle][dR]Q[hArg]P[dR][NMeL]SHKG[Oic][Phe(4-I)]P[dBip]-OH) | – | 77.5% | 2.77 nM | 71% | > 90% | – | – | –
CCCCCCCCCCCCC(=O)N[C@@H](CCC(=O)NCCOCCOCC(=O)NCCOCCOCC(=O)N[C@@H](CCC(N)=O)C(=O)N[C@@H](CCCNC(=N)N)C(=O)N1CCC[C@H]1C(=O)N(C)[C@@H](CCCNC(=N)N)C(=O)N[C@@H](CC1CCCCC1)C(=O)N[C@@H](CO)C(=O)N[C@@H](Cc1c[nH]cn1)C(=O)N[C@@H](CCCCN)C(=O)NCC(=O)N1CCC[C@@]1(C)C(=O)N[C@@H](CCCC)C(=O)N1CCC[C@H]1C(=O)N[C@@H](Cc1ccc(Cl)cc1)C(=O)O)C(=O)O [compound 418] ({Tridecanoyl-γGlu-AEEA-AEEA}-QRP[NMeR][Cha]SHKG[αMeP][Nle]P[Phe(4-Cl)]-OH) | – | < 1% | – | 8% | > 90% | – | 0.147 nM | 0.253 nM
CCCCCCCCCCCCC(=O)N[C@@H](CCC(=O)NCCOCCOCC(=O)NCCOCCOCC(=O)NC(CC(=O)N[C@@H](CCCNC(=N)N)C(=O)N1CCC[C@H]1C(=O)N(C)[C@@H](CCCNC(=N)N)C(=O)NC(C)(CC(C)C)C(=O)N[C@@H](CO)C(=O)N[C@@H](Cc1c[nH]cn1)C(=O)N[C@@H](CCCCN)C(=O)NCC(=O)N1[C@H](C(=O)N[C@@H](CCCC)C(=O)N2CCC[C@H]2C(=O)N[C@@H](Cc2ccc(Cl)cc2)C(=O)O)C[C@@H]2CCCC[C@@H]21)C(C)C)C(=O)O (stereo partly drawn) [compound 374] ({Tridecanoyl-γGlu-AEEA-AEEA}-[ξβ3hV]RP[NMeR][ξαMeL]SHKG[Oic][Nle]P[Phe(4-Cl)]-OH) | – | 11% | 0.305 nM | 89% | 66% | 0.503 nM | – | –
CCCCCCCCCCCCC(=O)N[C@@H](CCC(=O)NCCOCCOCC(=O)NCCOCCOCC(=O)N[C@@H](CCC(N)=O)C(=O)N[C@@H](CCCNC(=N)N)C(=O)N1CCC[C@H]1C(=O)N[C@@H](CCC(=O)O)C(=O)N[C@@H](CC(C)C)C(=O)N[C@@H](CO)C(=O)N[C@@H](Cc1c[nH]cn1)C(=O)N[C@@H](CCCCN)C(=O)NCC(=O)N1CCC[C@H]1C(=O)N[C@@H](CCCC)C(=O)N1CCC[C@H]1C(=O)N[C@@H](Cc1ccc(Cl)cc1)C(=O)O)C(=O)O [compound 477] ({Tridecanoyl-γGlu-AEEA-AEEA}-QRPELSHKGP[Nle]P[Phe(4-Cl)]-OH) | – | < 1% | – | 2% | 64% | – | 0.423 nM | –
